Laboratory results taken from US7029696B2, “Delivery and activation through liposome incorporation of diaminocyclohexane platinum(II) complexes” (priority 1996, dated 2006).
Entries after “also recorded” stand apart in the source; their conditions may differ.

Columns and labels:
[1] = Liposome entrapment (entrapment efficiency, free drug crystals by optic microscopy); type: physicochemical; conditions: generated within the liposome membranes from NDDP
From the text: NDDP and its two isomers, B10 and L10 were formulated in liposomes composed of combinations of various lipids including DMPC, DMPG, DOPC, DOPG, PA, PE, and PS. The liposomes were formed by reconstituting preliposomal powders containing the Pt-complex and the lipids with unbuffered 0.9% NaCl aqueous solution (saline) or phosphate-buffered saline (PBS). […] The median size of the multilamellar vesicles was 1–2 μm in all preparations. The median size of the small-size liposomes prepared by ultrasonication of multilamellar vesicles was 50–100 nm.

[2] = Solubility of DACH-Pt-Cl2; type: physicochemical
[3] = Intraliposomal stability of Pt-complexes by HPLC; type: physicochemical; conditions: for intraliposomal stability (in words): DMPC:DMPG liposomes, saline or PBS; for percentage of intact Pt-complex: in liposomes, 6 h after liposome preparation; for NDDP stability (%): liposomal NDDP, lipids as dry powder
Description: Stability of the different Pt-complexes incorporated in liposomes was determined as described previously by comparing the HPLC profiles as a function of time. In brief, aliquoted samples of liposome suspension were diluted (7×) with methanol at 0, 2, 6, and 24 h after liposome preparation, and each sample was then monitored by HPLC using chromega-8 bond column (4.6 mm×25 cm, 8 μm: ES Industries, NJ) and 10% water-methanol as eluant. The flow rate was 1 ml/min, and the complexes were detected by UV at 224 nm wavelength.

[4] = system: intraperitoneal L1210 mouse leukemia; assay: In vivo antitumor activity of liposomal Pt-complexes
Description: In vivo. The in vivo antitumor activity of liposomal Pt-complexes was assessed against intraperitoneal L1210 mouse leukemia. […] The results were expressed as the median survival of treated animals divided by the median survival of control animals ×100 (% T/C).

[5] = Tracking of liposomal NDDP degradation by 195Pt NMR and HPLC; type: physicochemical
Description: To characterize the active intermediate(s) in the reaction cascade of L-NDDP reconstituted in saline (0.9% NaCl), tracking experiments using ^195Pt NMR spectra in combination with ^31P NMR were performed. Samples 1–3 were prepared using the lipids DMPC and DMPG purchased in chloroform solution, while samples 4–8 were prepared using lipids in dry powder. In samples 1–3, the chloroform was initially evaporated in a rotavapor. The lipid film was dissolved in t-butanol containing the NDDP in solution. An aliquot of this solution was kept at 40° C. for 6 h and then lyophilized and extracted with methanol (sample 3). The remaining was lyophilized immediately, thus resulting in a preliposomal powder, which was reconstituted with saline to produce the liposome suspension. The liposome suspension was kept at room temperature for 6 hours. The Pt compounds and lipids were then extracted with chloroform (sample 1) or the sample was lyophilized to eliminate the water and the powder dissolved in methanol (sample 2) (see FIG. 6). Samples 4, 5, and 6 were prepared by complete evaporation of solvents after keeping the samples at 40° C. for 6 h, and redissolving them in methanol. Samples 7 and 8 were prepared by lyophilization of water for 1–2 d and redissolution in methanol. All samples were prechecked by HPLC before tracking with NMR. Chemical shifts of the products are expressed in parts-per-million relative to Na2PtCl6 in ^195Pt and DMPC in ^31P NMR.

[6] = liposomal, DMPC:DMPG 7:3, lipids in chloroform, reconstituted in PBS, 25 mg/kg i.p. day 1
[7] = liposomal, DMPC:DMPG 7:3, lipids in chloroform, reconstituted in PBS, 50 mg/kg i.p. day 1
[8] = liposomal, DMPC:DMPG 7:3, lipids in chloroform, reconstituted in PBS, 100 mg/kg i.p. day 1
[9] = liposomal, DMPC:DMPG 7:3, lipids in chloroform, reconstituted in PBS, 150 mg/kg i.p. day 1
[10] = liposomal, DMPC:DMPG 7:3, lipids in chloroform, reconstituted in saline, 25 mg/kg i.p. day 1
[11] = liposomal, DMPC:DMPG 7:3, lipids in chloroform, reconstituted in saline, 50 mg/kg i.p. day 1
[12] = liposomal, DMPC:DMPG 7:3, lipids in chloroform, reconstituted in saline, 100 mg/kg i.p. day 1
[13] = liposomal, DMPC:DMPG 7:3, lipids in chloroform, reconstituted in saline, 150 mg/kg i.p. day 1
[14] = liposomal, lipids in chloroform, reconstituted in PBS
[15] = liposomal, lipids in chloroform, reconstituted in saline

For “dichloro(1,2-diaminocyclohexane) platinum(II) [DACH-Pt—Cl2]”, the “time the drug remains liposome-bound without leaking out and crystallizing” value [1] was “at least 24 h”, the solubility in dimethylformamide ([2]; dimethylformamide (DMF)) was “good solubility” and the “solubility in most organic solvents” value ([2]; most organic solvents) was “insoluble”. The solubility in water ([2]; water) was “very low solubility; also recorded: lack of solubility”.

For `CCCCCCC(C)(C)C(=O)[O][Pt][O]C(=O)C(C)(C)CCCCCC.N[C@@H]1CCCC[C@H]1N` [B10], the “intraliposomal stability (in words)” value [3] was “intermediate stability”, the “percentage of intact Pt-complex” value ([3]; reconstituted in PBS) was 95.9% and the “percentage of intact Pt-complex” value ([3]; reconstituted in saline) was 85.0%. For the same compound, the “% T/C” value [4, 6] was 114%, the “% T/C” value [4, 7] was 114% and the “% T/C” value [4, 8] was 142%. For the same compound, the “% T/C” value [4, 9] was 163%, the “% T/C” value [4, 10] was 114% and the “% T/C” value [4, 11] was 128%. The “% T/C” value [4, 12] was 228%, the “% T/C” value [4, 13] was 163% and the “antitumor activity (in words)” value [4, 14] was “no significant antitumor activity”. It also gave an optimal dose [4, 15] of 100 mg.

For `CCCCCCCCCC(=O)[O][Pt][O]C(=O)CCCCCCCCC.N[C@@H]1CCCC[C@H]1N` [L10], the “intraliposomal stability (in words)” value [3] was “highly stable”, the “percentage of intact Pt-complex” value ([3]; reconstituted in PBS) was 100% and the “percentage of intact Pt-complex” value ([3]; reconstituted in saline) was 93.1%. For the same compound, the “% T/C” value [4, 6] was 114%, the “% T/C” value [4, 7] was 100% and the “% T/C” value [4, 8] was 100%. The “% T/C” value [4, 9] was 100%, the “% T/C” value [4, 10] was 100% and the “% T/C” value [4, 11] was 157%. The “% T/C” value [4, 12] was 178%, the “% T/C” value [4, 13] was 123% and the “antitumor activity (in words)” value [4, 14] was “no significant antitumor activity”. It also gave an optimal dose [4, 15] of 100 mg.

For “cis-bis-neodecanoato-trans-R,R-1,2-diaminocyclohexane platinum (II) [NDDP]”, the “original NDDP remaining” value ([3]; 24 h, DMPC:DMPG 7:3, NDDP:total lipid ratio 1:15 or 1:30) was 25%, the “initial NDDP present” value ([3]; 24 hours, DMPC:DMPG 7:3, NDDP:total lipid ratio 1:5 or 1:10) was 85% and the “intraliposomal stability (in words)” value [3] was “rather unstable”. The “percentage of intact Pt-complex” value ([3]; reconstituted in PBS) was 82.1%, the “percentage of intact Pt-complex” value ([3]; reconstituted in saline) was 43.7% and the “NDDP stability (%)” value ([3]; saline pH 3.0, 10 min after reconstitution) was 43%. The “NDDP stability (%)” value ([3]; saline pH 3.0, 2 h after reconstitution) was 15%, the “NDDP stability (%)” value ([3]; saline pH 3.0, 6 h after reconstitution) was 7% and the “NDDP stability (%)” value ([3]; saline pH 5.0, 10 min after reconstitution) was 80%. The “NDDP stability (%)” value ([3]; saline pH 5.0, 1 h after reconstitution) was 72%, the “NDDP stability (%)” value ([3]; saline pH 5.0, 2 h after reconstitution) was 67% and the “NDDP stability (%)” value ([3]; saline pH 5.0, 6 h after reconstitution) was 38%. The “NDDP stability (%)” value ([3]; saline pH 7.0, 10 min after reconstitution) was 100%, the “NDDP stability (%)” value ([3]; saline pH 7.0, 2 h after reconstitution) was 95% and the “NDDP stability (%)” value ([3]; saline pH 7.0, 6 h after reconstitution) was 92%. For the same compound, the “NDDP transformed into the active Pt-species” value ([3]; saline pH 5.0, calculated amount of activated species (35 mg/kg of 50 mg/kg)) was “about 70%”, the “NDDP transformed into the active Pt-species” value ([3]; saline pH 7.0, calculated amount of activated species (10 mg/kg of 100 mg/kg)) was 10% and the “effect of liposome size on intraliposomal stability” value ([3]; ultrasonication of multilamellar vesicles, regardless of lipid composition) was “did not affect the intraliposomal stability”. For the same compound, the “% T/C” value [4, 6] was 114%, the “% T/C” value [4, 7] was 171% and the “% T/C” value [4, 8] was 200%. For the same compound, the “% T/C” value [4, 9] was 150%, the “% T/C” value [4, 10] was 157% and the “% T/C” value [4, 11] was 211%. The “% T/C” value [4, 12] was “Toxic”, the “% T/C” value [4, 13] was “Toxic” and the optimal dose ([4]; liposomal, dry lipids, reconstituted with saline of pH 3.0) was 25 mg/kg. For the same compound, the optimal dose ([4]; liposomal, dry lipids, reconstituted with saline of pH 5.0) was 50 mg/kg, the optimal dose ([4]; liposomal, dry lipids, reconstituted with saline of pH 7.0) was 100 mg/kg and the “% T/C” value ([4]; liposomal, dry lipids, saline pH 3.0, 12.5 mg/kg, administered 6 h after reconstitution) was 157%. The “% T/C at the optimal dose” value ([4]; liposomal, dry lipids, saline pH 3.0, 25 mg/kg) was 214%, the “% T/C” value ([4]; liposomal, dry lipids, saline pH 3.0, 25 mg/kg, administered 10 min after reconstitution) was 150% and the “% T/C” value ([4]; liposomal, dry lipids, saline pH 3.0, 25 mg/kg, administered 2 h after reconstitution) was 186%. The “% T/C” value ([4]; liposomal, dry lipids, saline pH 3.0, 25 mg/kg, administered 6 h after reconstitution) was 240%, the “% T/C” value ([4]; liposomal, dry lipids, saline pH 3.0, 50 mg/kg, administered 6 h after reconstitution) was “Toxic” and the “% T/C” value ([4]; liposomal, dry lipids, saline pH 5.0, 12.5 mg/kg, administered 6 h after reconstitution) was 186%. For the same compound, the “% T/C” value ([4]; liposomal, dry lipids, saline pH 5.0, 25 mg/kg, administered 6 h after reconstitution) was 200%, the “% T/C at the optimal dose” value ([4]; liposomal, dry lipids, saline pH 5.0, 50 mg/kg) was 271% and the “% T/C” value ([4]; liposomal, dry lipids, saline pH 5.0, 50 mg/kg, administered 10 min after reconstitution) was 133%. For the same compound, the “% T/C” value ([4]; liposomal, dry lipids, saline pH 5.0, 50 mg/kg, administered 2 h after reconstitution) was 216%, the “% T/C” value ([4]; liposomal, dry lipids, saline pH 5.0, 50 mg/kg, administered 6 h after reconstitution) was 270% and the “% T/C” value ([4]; liposomal, dry lipids, saline pH 5.0, 100 mg/kg, administered 6 h after reconstitution) was “Toxic”. The “% T/C” value ([4]; liposomal, dry lipids, saline pH 7.0, 25 mg/kg, administered 6 h after reconstitution) was 186%, the “% T/C” value ([4]; liposomal, dry lipids, saline pH 7.0, 50 mg/kg, administered 6 h after reconstitution) was 200% and the “% T/C at the optimal dose” value ([4]; liposomal, dry lipids, saline pH 7.0, 100 mg/kg) was 271%. The “% T/C” value ([4]; liposomal, dry lipids, saline pH 7.0, 100 mg/kg, administered 10 min after reconstitution) was 163%, the “% T/C” value ([4]; liposomal, dry lipids, saline pH 7.0, 100 mg/kg, administered 2 h after reconstitution) was 216% and the “% T/C” value ([4]; liposomal, dry lipids, saline pH 7.0, 100 mg/kg, administered 6 h after reconstitution) was 257%. The optimal dose [4, 14] was 100 mg/kg, the optimal dose [4, 15] was 50 mg/kg and the “stability in the absence of DMPG” value ([5]; liposomes composed of only DMPC) was “completely preserved stability”. The “degradation of NDDP” value ([5]; sample 7: dry-powder lipids, saline pH 6.5–7.0, 6 h at room temperature) was < 5% and the “degradation of NDDP” value ([5]; sample 8: dry-powder lipids, acidic saline pH 3.0–4.0, in 10 min, yielding DACH-Pt—Cl2) was 60–95%.

With `N.N.[Cl][Pt][Cl]` [Cisplatin, cis-dichlorodiamine-platinum(II), reference compound] the “% T/C” value ([4]; Table 2 comparator, 10 mg/kg i.p. day 1, printed in the Saline column) was 142% and the “% T/C” value ([4]; Table 3 comparator, 10 mg/kg, printed in the 6 h column) was 150%.
